This note sets out measurements from PubChem BioAssay (NCI).

Test systems include A498 renal; COLO 205 colon; HCC-2998 colon; LOX IMVI melanoma; NCI-H226 lung; OVCAR-8 ovarian; SF-295 CNS; SK-OV-3 ovarian; UACC-257 melanoma; SNB-75 CNS.
Common to all, as to experiment: growth of human tumour cells (NCI), 48 h

The structures appear in SMILES notation. Several values for one entry are separate records, joined by “and”; a condition that tells them apart may be missing. Equal values may be shown once.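 Tested at 5 concentrations; 48 h exposure; 96-well plates; endpoints linearly interpolated, else capped at highest concentration. GI50 marks 50% less growth. TGI marks complete inhibition of growth.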

Regarding `COc1cc2c(c(OC)c1OC)-c1ccc(O)cc1[C@@H](NC(C)=O)CC2`, the GI50 is 0.0269 µM in the assay with A498 renal; 0.0319 µM in the assay on COLO 205 colon; 0.0465 µM with HCC-2998 colon; 0.0803 µM in the assay on LOX IMVI melanoma; 0.117 µM in the assay on NCI-H226 lung; 0.0562 µM in the assay on OVCAR-8 ovarian. In addition, the GI50 with SF-295 CNS is 0.0341 µM; with SK-OV-3 ovarian it was 0.0377 µM; in the assay on UACC-257 melanoma it was over 68.3 µM. Moreover, the TGI with A498 renal was 0.0956 µM; with COLO 205 colon, 0.0859 µM; with HCC-2998 colon it was over 100 µM; in the assay with LOX IMVI melanoma, over 100 µM; in the assay with NCI-H226 lung, over 100 µM; in the assay with OVCAR-8 ovarian, over 100 µM. Besides, the TGI with SF-295 CNS, in the assay with SK-OV-3 ovarian and in the assay on UACC-257 melanoma was over 100 µM in each case.
As to `Oc1ccc(O)c(-c2cn3c(n2)SCC3)c1`, the GI50 is 20.9 µM in the assay with A498 renal; 17 µM in the assay on COLO 205 colon; 19.6 µM with HCC-2998 colon; 17.5 µM with LOX IMVI melanoma; 6.85 µM with NCI-H226 lung; 19.7 µM with OVCAR-8 ovarian. In addition, the GI50 in the assay on SF-295 CNS is 14.8 µM; in the assay on SK-OV-3 ovarian it was 12.5 µM; with UACC-257 melanoma, 25.5 µM. For the same molecule, the TGI in the assay on A498 renal stood at 75.7 µM; in the assay on COLO 205 colon it was 37.8 µM; with HCC-2998 colon, 36.2 µM; with LOX IMVI melanoma it was 31.5 µM; with NCI-H226 lung it was 28.6 µM; in the assay with OVCAR-8 ovarian it was 52.1 µM. The TGI in the assay on SF-295 CNS was found to be 38.7 µM; in the assay on SK-OV-3 ovarian, 40.6 µM; with UACC-257 melanoma, 55.8 µM.
As for `NCCc1ccc(S(=O)(=O)F)cc1`, the GI50 in the assay with COLO 205 colon is over 100 µM; in the assay with HCC-2998 colon, 39.1 µM; with LOX IMVI melanoma, 51.1 µM; in the assay with OVCAR-8 ovarian, over 100 µM; in the assay on SF-295 CNS, 64.5 µM; in the assay with SK-OV-3 ovarian, over 100 µM. Further, the GI50 in the assay with SNB-75 CNS and with UACC-257 melanoma was over 100 µM in each case. Moreover, the TGI in the assay on COLO 205 colon, with HCC-2998 colon, in the assay with LOX IMVI melanoma, in the assay with OVCAR-8 ovarian, with SF-295 CNS and with SK-OV-3 ovarian was over 100 µM throughout. Further, the TGI in the assay with SNB-75 CNS and in the assay with UACC-257 melanoma was over 100 µM each time.
`Cc1ccc(Nc2nccc(N(C)c3ccc4c(C)n(C)nc4c3)n2)cc1S(N)(=O)=O`: the GI50 was > 100 µM and 29.8 µM with HCC-2998 colon; 2.88 µM and 0.479 µM and 3.93 µM in the assay with LOX IMVI melanoma; 0.781 µM and 0.425 µM and 1.41 µM with NCI-H226 lung; 4.8 µM and 3.61 µM and 5.04 µM with OVCAR-8 ovarian; 3.57 µM and 2.78 µM and 9.92 µM in the assay on SF-295 CNS; 2.93 µM and 4.9 µM and 4.24 µM in the assay with SK-OV-3 ovarian. In addition, in the assay on SNB-75 CNS, the GI50 is 2.39 µM and 1.03 µM and 5.83 µM. Besides, the TGI in the assay with HCC-2998 colon was over 100 µM; in the assay with NCI-H226 lung, over 100 µM; in the assay with OVCAR-8 ovarian, over 100 µM; with SF-295 CNS, over 100 µM; in the assay with SK-OV-3 ovarian it was 29.6 µM and > 10 µM and > 100 µM; with UACC-257 melanoma it was > 10 µM and 51.5 µM.
On to `COc1cc(-c2nccc3cc(OC)c(OC)cc23)ccc1O`, for which the TGI with COLO 205 colon, in the assay with HCC-2998 colon, with LOX IMVI melanoma, in the assay on NCI-H226 lung, in the assay on OVCAR-8 ovarian and in the assay on SF-295 CNS was over 100 µM each time. In addition, the TGI with SK-OV-3 ovarian, with SNB-75 CNS and in the assay on UACC-257 melanoma was over 100 µM in each case.
`CCCCCOCC(O)CO` (stereo not drawn): the TGI with A498 renal, in the assay with COLO 205 colon, in the assay with LOX IMVI melanoma, with NCI-H226 lung, in the assay on OVCAR-8 ovarian and with SF-295 CNS was over 100 µM in each case. Also, in the assay with UACC-257 melanoma, the TGI was over 100 µM.
In the case of `C=C(CO)CC(O)c1cc(OC)ccc1OC` (stereo not drawn), the TGI with COLO 205 colon, in the assay with HCC-2998 colon, with LOX IMVI melanoma, in the assay on NCI-H226 lung, in the assay on OVCAR-8 ovarian and with SF-295 CNS was over 100 µM in each case. Besides, the TGI with SK-OV-3 ovarian, with SNB-75 CNS and with UACC-257 melanoma was over 100 µM throughout.
With `CC(=O)Nc1cc2cc(N)ccc2oc1=O`, the TGI in the assay with A498 renal, in the assay with COLO 205 colon, in the assay on HCC-2998 colon, with LOX IMVI melanoma, in the assay with NCI-H226 lung and in the assay on OVCAR-8 ovarian was over 100 µM each time. Besides, the TGI with SF-295 CNS and in the assay with UACC-257 melanoma was over 100 µM in each case.
On to `N#CC(C(=O)C(=O)Nc1ccccc1)c1ccccc1` (stereo not drawn), for which the TGI in the assay with LOX IMVI melanoma, with NCI-H226 lung, with SF-295 CNS, in the assay with SK-OV-3 ovarian, in the assay with SNB-75 CNS and with UACC-257 melanoma was over 100 µM each time.
As for `Cc1nc2c(c(N3CCCc4ccccc43)n1)CCC2`, the GI50 in the assay on A498 renal is under 0.01 µM; in the assay on COLO 205 colon, under 0.01 µM; in the assay with HCC-2998 colon, under 0.01 µM; with LOX IMVI melanoma, under 0.01 µM; in the assay on NCI-H226 lung it was under 0.01 µM; with OVCAR-8 ovarian, 0.0112 µM. In addition, the GI50 in the assay with SF-295 CNS is under 0.01 µM; with SK-OV-3 ovarian it was under 0.01 µM; in the assay with UACC-257 melanoma, 12.9 µM. Also, the TGI in the assay with COLO 205 colon was 0.0111 µM; with HCC-2998 colon, over 100 µM; in the assay with LOX IMVI melanoma, over 100 µM; in the assay with NCI-H226 lung, 40.5 µM; in the assay on OVCAR-8 ovarian, over 100 µM; in the assay with SF-295 CNS it was over 100 µM. Further, the TGI with SK-OV-3 ovarian and with UACC-257 melanoma was over 100 µM each time.
On to `N#CC12CCC1C1CCCCC12N1CCSCC1` (stereo not drawn), for which the TGI with A498 renal, with COLO 205 colon, in the assay with HCC-2998 colon, with OVCAR-8 ovarian, in the assay with SF-295 CNS and in the assay on SNB-75 CNS was over 100 µM each time. Moreover, in the assay on UACC-257 melanoma, the TGI is over 10 µM.
